Measurements reported in US11478471B2, “Methods and compositions for treating diabetes, metabolic syndrome and other conditions” (priority 2005, dated 2022).
Values after ≈ are worked out from the molar mass of the structure shown. Read-outs that look alike come from different tables or passages of the source.

Legend:
[1] = dog, in vivo, po, 40 mg/kg/day
[2] = tested on: mouse L5178Y lymphoma cells; experiment: Mouse lymphoma assay, thymidine kinase locus; conditions: with and without S-9, up to toxic doses
[3] = tested on: CYP7A (cholesterol 7α hydroxylase); experiment: Inhibition of CYP7A, cholesterol 7α-hydroxylase activity (Rotstein et al. 1992); conditions: assuming intrahepatic concentration approximately 20% of total plasma concentration
Candida kefyr = experiment: Antifungal MIC; format: cell-based; conditions: Kluyveromyces marxianus, DSM11954; DSM strain 11954, 48 h
Candida parapsilosis = experiment: Antifungal MIC; format: cell-based; conditions: Lodderomyces parapsilosis, read-out: MIC
P450 2C6 = P450 2C6 (Rattus norvegicus, UniProt P05178); conditions: Rotstein et al. 1992; read-out: IC50, progesterone 21 hydroxylase (2C6); cited from earlier work
Salmonella typhimurium = experiment: Ames assay; conditions: five histidine requiring strains
[4] = dog, in vivo, 40 mg/kg
Procedure: As a control, a separate set of 2 male and 2 female dogs was treated with vehicle.

[5] = tested on: P450 2B1, 2B2, 1A1, 2C11, 3A; conditions: read-out: IC50, progesterone 16α hydroxylase (2B1, 2B2, 1A1, 2C11, 3A); Rotstein et al. 1992; cited from earlier work
cholesterol levels = experiment: Cholesterol levels in rats after oral dosing; format: in vivo, Sprague Dawley rats; conditions: single oral 200 mg/kg
Procedure: The rats were maintained as described above; the drugs were suspended in olive oil, and each rat was dosed once via gastric tube to achieve a dose of 200 mg/kg. All of the rats were dosed at a specific time so that all terminations occurred between 6 and 7 pm. […] Following sacrifice, plasma was prepared, and the concentration of corticosterone in the plasma was determined by ELISA. In the same plasma samples, total cholesterol levels were also determined.

Saccharomyces cerevisiae = experiment: Antifungal MIC; format: cell-based; conditions: DSM01333, DSM strain 01333, 48 h
[6] = 28 day GLP toxicity study in dogs; conditions: 28 days
P450 3A = conditions: read-out: IC50, progesterone 6β hydroxylase (3A); Rotstein et al. 1992; cited from earlier work

Sequence of P450 2C6 (P05178 whole entry): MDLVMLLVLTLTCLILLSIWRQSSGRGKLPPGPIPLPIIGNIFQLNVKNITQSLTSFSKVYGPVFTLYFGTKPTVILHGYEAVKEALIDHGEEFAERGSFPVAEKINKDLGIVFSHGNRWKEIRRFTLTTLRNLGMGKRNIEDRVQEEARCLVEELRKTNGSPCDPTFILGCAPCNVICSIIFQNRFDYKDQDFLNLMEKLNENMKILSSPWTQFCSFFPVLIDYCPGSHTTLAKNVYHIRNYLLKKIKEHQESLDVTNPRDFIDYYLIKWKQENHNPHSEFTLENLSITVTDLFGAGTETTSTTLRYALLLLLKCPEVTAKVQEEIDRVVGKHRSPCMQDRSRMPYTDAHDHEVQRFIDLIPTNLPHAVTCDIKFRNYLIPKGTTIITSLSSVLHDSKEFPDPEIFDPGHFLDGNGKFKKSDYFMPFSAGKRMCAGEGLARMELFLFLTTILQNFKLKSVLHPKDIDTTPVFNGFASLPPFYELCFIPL

## CC(=O)N1CCN(c2ccc(OC[C@@H]3CO[C@@](Cn4ccnc4)(c4ccc(Cl)cc4Cl)O3)cc2)CC1 [DIO-902, 2S,4R cis-1-acetyl-4-[4-[[2-(2,4-dichlorophenyl)-2-(1H-imidazol-1-ylmethyl)-1,3-dioxolan-4-yl]methoxyl]phenyl]piperazine]
[1]
  reduction in total white cell numbers: 20%
[2]
  genotoxicity, mouse lymphoma assay: negative
[3]
  total plasma concentration required to inhibit intrahepatic CYP7A: 12 microM and approximately 6.3 microg/mL
Candida kefyr
  MIC: 0.03 µg/mL (≈ 0.0565 µM)
Candida parapsilosis; DSM05784, DSM strain 05784, 48 h
  MIC: 0.03 µg/mL (≈ 0.0565 µM)
Candida parapsilosis; DSM11224, DSM strain 11224, 48 h
  MIC: 0.03 µg/mL (≈ 0.0565 µM)
P450 2C6
  IC50: 9 µM
Salmonella typhimurium
  genotoxicity, Ames assay: negative
[4]
  clinical signs: vomiting
[5]
  IC50: 84 µM
Cholesterol levels; 4 h
  Cholesterol Levels (mean ± SEM): 69.6 ± 1.9 mg/dL
Cholesterol levels; 8 h
  Cholesterol Levels (mean ± SEM): 73.5 ± 3.1 mg/dL
Cholesterol levels; 12 h
  Cholesterol Levels (mean ± SEM): 77.3 ± 3.9 mg/dL
Cholesterol levels; 16 h
  Cholesterol Levels (mean ± SEM): 61.9 ± 3.1 mg/dL
Cholesterol levels; 20 h
  Cholesterol Levels (mean ± SEM): 58 ± 1.2 mg/dL
Cholesterol levels; 24 h
  Cholesterol Levels (mean ± SEM): 61.9 ± 3.1 mg/dL
Saccharomyces cerevisiae
  MIC: 0.25 µg/mL (≈ 0.47 µM)
[6]; dogs, 20 mg/kg/day
  QTc: no obvious QTc prolongation
  food eaten less than placebo control group: 25-35%
[6]; dogs, 20 mg/kg/day, females (placebo 0.9 kg)
  body weight gain: 0.14 kg
[6]; dogs, 20 mg/kg/day, males (placebo 1.1 kg)
  body weight gain: 0.25 kg
[6]; dogs, 2, 6.5, 20 mg/kg/day
  change in serum chemistry measures: reduction in cholesterol
  hematology: no hematological changes noted
  ophthalmological and electrocardiographic parameters: no measurable effects
[6]; dogs, any dose
  microscopic findings: no remarkable microscopic findings
P450 3A
  IC50: 1.3 µM
